Results reported in patent US5185338A, “Medicament for treating cerebral insufficiency diseases, novel 2-(1-piperazinyl)-4-phenylcycloalkanopyrimidine derivatives, and process for the production thereof” (Dainippon Pharmaceutical Co., Ltd., priority 1989, dated 1993).
Where two headings read alike, the source gives them in different places.

Legend:
dopamine (D2) receptor = target: T1, dopamine (D2) receptor (Rattus norvegicus, UniProt P61169); test: Dopamine (D2) receptor binding assay, [3H] spiperone; design: species or system rats; settings: rat brain crude synaptosome fractions
T1 construct: Crude synaptosome fractions prepared from some brain regions in rats were used as the receptor sources; from tissue
T1 sequence (P61169 whole entry): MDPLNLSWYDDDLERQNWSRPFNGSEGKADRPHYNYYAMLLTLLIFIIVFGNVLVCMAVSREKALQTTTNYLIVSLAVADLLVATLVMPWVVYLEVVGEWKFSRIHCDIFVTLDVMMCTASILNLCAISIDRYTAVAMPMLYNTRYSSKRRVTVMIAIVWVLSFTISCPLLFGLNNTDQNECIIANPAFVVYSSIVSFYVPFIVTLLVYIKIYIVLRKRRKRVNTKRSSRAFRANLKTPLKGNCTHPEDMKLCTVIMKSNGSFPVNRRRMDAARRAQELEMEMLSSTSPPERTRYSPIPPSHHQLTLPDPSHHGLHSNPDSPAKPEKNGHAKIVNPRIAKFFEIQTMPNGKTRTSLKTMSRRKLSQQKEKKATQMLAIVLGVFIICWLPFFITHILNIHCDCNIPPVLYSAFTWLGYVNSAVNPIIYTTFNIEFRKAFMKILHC
Procedure: (§1) Effect of binding to dopamine (D2), serotonin (S1, S2) and adrenaline (α1) receptor (in vitro receptor binding assay):
(§2) Dopamine (D2), serotonin (S1, S2) and adrenaline (α1) receptor binding assays were carried out according to the methods of I. Creese et al. [Eur. J. Pharmacol., 46, 377 (1977)], S. J. Peroutka et al. [Mol. Pharmacol., 16, 687 (1979)], J. E. Leysen et al. [Mol. Pharmacol., 21, 301 (1982)], and D. C. U'Prichard et al. [Mol. Pharmacol., 13, 454 (1977)], respectively.
(§3) Crude synaptosome fractions prepared from some brain regions in rats were used as the receptor sources, and [^3 H] spiperone (D2), [^3 H] serotonin (S1), [^3 H] ketanserin (S2) and [^3 H] WB-4101 (α1) were used as the labelled ligands. The binding assay was performed by incubating aliquots of synaptosome fraction in buffer solution (final volume 1 ml) containing the receptor source and the labelled ligand in the presence of a test compound having various concentration thereof for a fixed time. The assay was terminated by rapid filtration through Whatman GF/B glass fiber filters attached to a cell-harvester (Brandel) and radioactivity on the filters was counted with a scintillation counter. Specific binding was calculated as a difference between the amount of radioactivity in the assay group and that in the control group which was separately measured likewise in the presence of an excess amount of an unlabelled ligand [spiperone (D2), serotonin (S1), methysergide (S2) and prazosin (α1)] instead of […]. The IC50 value of the test compounds (i.e. the concentration causing 50% inhibition of the labelled ligand specific binding) was determined by probit analysis.

[1] = tested on: scopolamine-induced hypermotility; test: Antagonistic effect on scopolamine-induced hypermotility; assay type: in vivo, mice (Std-ddY strain); settings: Mus musculus, po, read-out: Inhibitory ratio (% antagonism of scopolamine-induced hypermotility)
Procedure: Antagonistic effect on scopolamine-induced hypermotility:
A test compound was orally administered to each mouse, and 90 minutes after the administration, each one test animal was placed within a test cage (25×35×30 cm). After 30 minutes, scopolamine hydrobromide (1 mg/kg) was intraperitoneally administered to the mice and then the motility was measured with Animex activity meter for 30 minutes. The effect of test compounds was expressed as % antagonism (complete antagonism to the motility level of non-dosed animals=100%).

[2] = tested on: scopolamine-induced deficit of spontaneous alternation behavior; test: Improving effect on scopolamine-induced deficit of spontaneous alternation behavior (T-maze); assay type: in vivo, mice (Std-ddY strain); settings: scopolamine hydrobromide 1 mg/kg, non-dosed mice=100%
Text: Improving effect on scopolamine-induced deficit of spontaneous alternation behavior:
A group of 15-25 male mice (Std-ddY strain, 22-28 g) was used for evaluating effect of the test compounds on scopolamine-induced deficit of spontaneous alternation in a T-maze, which is a known animal model of memory impairment due to hypofunction of the cholinergic nervous system. The T-maze used consists of a stem and two arms which are 25 cm long, 5 cm wide and 10 cm high. The first 10 cm of the stem and last 10 cm of each arm are divided by sliding doors into start and goal boxes.
A test compound and scopolamine hydrobromide (1 mg/kg) were intraperitoneally administered to each mouse, and after 30 minutes a test of spontaneous alternation task in the T-maze was continuously repeated for 8 trials. Commonly, naive mice alternate each (right and left) goal box in turn, but scopolamine-treated animals tend to enter the same goal box repeatedly. The effect of the test compounds was expressed as % improvement (complete improvement to the alternation level of non-dosed mice=100%).

serotonin (S2) receptor = target: T2, serotonin (S2) receptor (Rattus norvegicus, UniProt P14842); test: Serotonin (S2) receptor binding assay, [3H] ketanserin; design: species or system rats; settings: rat brain crude synaptosome fractions
T2 construct: Crude synaptosome fractions prepared from some brain regions in rats were used as the receptor sources; from tissue
T2 sequence (P14842 whole entry): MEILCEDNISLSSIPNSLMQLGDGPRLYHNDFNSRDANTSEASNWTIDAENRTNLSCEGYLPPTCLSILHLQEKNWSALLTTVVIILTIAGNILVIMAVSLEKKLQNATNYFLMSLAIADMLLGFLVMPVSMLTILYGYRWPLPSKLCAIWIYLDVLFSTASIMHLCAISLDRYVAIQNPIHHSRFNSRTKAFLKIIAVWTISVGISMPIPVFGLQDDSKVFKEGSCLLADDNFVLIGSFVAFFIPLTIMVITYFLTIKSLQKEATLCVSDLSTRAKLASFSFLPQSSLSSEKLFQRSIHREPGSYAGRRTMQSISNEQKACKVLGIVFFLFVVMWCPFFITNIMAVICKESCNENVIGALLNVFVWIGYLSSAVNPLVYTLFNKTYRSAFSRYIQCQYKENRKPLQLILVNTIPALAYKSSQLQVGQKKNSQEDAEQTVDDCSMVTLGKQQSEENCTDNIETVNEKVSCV
Procedure: as §1, §2, §3

[3] = tested on: cycloheximide-induced amnesia of passive avoidance response; test: Improving effect on cycloheximide-induced amnesia of passive avoidance response; assay type: in vivo, mice (Std-ddY strain); settings: cycloheximide 60 mg/kg s.c., retention trial at 24 hours, non-dosed animals=100%
Text: Improving effect on cycloheximide-induced amnesia of passive avoidance response:
Anti-amnesic effect of the test compounds was examined using mice given cycloheximide which is a known amnesia-inducing agent.
A group of 15-20 male mice (Std-ddY strain, 27-33 g) was subjected to training and retention trials for a passive avoidance task in a step-down apparatus (30×30×50 cm) with a grid floor and a wooden platform (4×4×4 cm) in a center of the floor. In the training trial, each mouse was first placed on the platform, and when the mouse stepped down on the grid floor, an electric shock (1 Hz, 0.5 sec, 60 VDC) was delivered to the feet for 15 seconds. Immediately after the training trial, cycloheximide (60 mg/kg, s.c.) and a test compound (i.p.) were administered. The retention trial was carried out 24 hours thereafter, and the time from placing again each mouse on the platform until stepping down on the grid floor (step-down latency) was measured. The step-down latency in the retention trial was markedly shortened by treatment of cycloheximide (amnesia). The effect of test compounds was assessed by % improvement (complete improvement to the latency level of non-dosed animals=100%).

[4] = U.S. Pat. No. 3,915,976; U.S. Pat. No. 3,305,553; cited from earlier work
[5] = tested on: brain serotonin metabolite, 5-hydroxyindole-3-acetic acid (5-HIAA); test: Increasing effect on concentration of brain serotonin metabolite (5-HIAA); assay type: in vivo, mice (Std-ddY strain); settings: Mus musculus, 2 h, two hours after treatment, 5-HIAA level of non-dosed animals=100%
Text: Increasing effect on concentration of brain serotonin metabolite:
A group of 5 male mice (Std-ddY strain, 25-30 g) was used for examining effect of the test compounds on concentration of a brain serotonin metabolite, 5-hydroxyindole-3-acetic acid (5-HIAA).
Mice were killed by decapitation two hours after the treatment with the test compounds. Brains were quickly taken out, homogenized in 1N formic acid-acetone solution, and centrifuged in a refrigerated ultracentrifuge. The supernatant was evaporated by blowing with N2 gas, and then, the residue was again dissolved in 0.01N acetic acid, and served for determining 5-HIAA concentration by high performance liquid chromatography with electrochemical detection. The effect of the test compounds on 5-HIAA concentration was shown as % of control (5-HIAA level of non-dosed animals=100%).

adrenaline (α1) receptor = test: Adrenaline (α1) receptor binding assay, [3H] WB-4101; design: species or system rats; settings: rat brain crude synaptosome fractions
Procedure: as §1, §2, §3

mice = test: Acute toxicity; assay type: in vivo, mice (Std-ddY strain); settings: 200 mg/kg orally; 7 days observation; 5 male mice
Procedure: Experiment 8 Acute toxicity
A group of 5 male mice (Std-ddY strain, 25-30 g) was used. The test compound (200 mg/kg) was orally administered to the test animal in the form of a 0.5% tragacanth solution or suspension, and for 7 days after the administration of the test compound, the lethality of animals was observed.

serotonin (S1) receptor = test: Serotonin (S1) receptor binding assay, [3H] serotonin; design: species or system rats; settings: rat brain crude synaptosome fractions
Procedure: as §1, §2, §3

[6] = tested on: sodium nitrite-induced anemic hypoxia; test: Protective effect on sodium nitrite-induced anemic hypoxia; assay type: in vivo, mice (Std-ddY strain); settings: 10 mg/kg i.p., 2 hours before sodium nitrite 225 mg/kg i.p.; vs sodium nitrite alone
Text: Protective effect on sodium nitrite-induced anemic hypoxia:
It is known that sodium nitrite (NaNO2) induces anemic hypoxia by converting hemoglobin to metohemoglobin, resulting in a severe impairment of brain function and ultimately in death. Based on the above knowledge, prolongation of survival time after sodium nitrite treatment was used as an index for antihypoxic effect of the test compounds.
A group of 20 male mice (Std-ddY strain, 25-30 g) was intraperitoneally given a test compound (10 mg/kg), and 2 hours after the treatment with the test compound, a lethal amount (225 mg/kg) of sodium nitrite was intraperitoneally administered, and then, the survival time of each mouse was measured. The effect of the test compounds was assessed by the prolongation rate (%) of survival time compared with that of the animals treated with sodium nitrite alone.

[7] = Chem. Pharm. Bull., 31, 2254-2261 (1983); cited from earlier work
[8] = tested on: reserpine-induced hypothermia; test: Anti-reserpine effect (reserpine-induced hypothermia); assay type: in vivo, mice (Std-ddY strain); settings: 100 mg/kg orally; reserpine 5 mg/kg s.c.; rectal temperature at 4 hours; complete inhibition=100%
Procedure: A group of 5 male mice (Std-ddY strain, 22-25 g) was used for examining the antagonistic effect of the test compounds on reserpine-induced hypothermia, which is known as a screening method for the antidepressant drug.
Reserpine (5 mg/kg) was subcutaneously administered to the mice and further a test compound was orally administered thereto. Four hours after the administration, rectal temperature of the mice was measured. The effect of the test compounds was estimated by % inhibition (complete inhibition to the hypothermia by reserpine in non-dosed animals=100%).

[9] = 30 mg/kg, orally, scopolamine hydrobromide 1 mg/kg i.p., complete antagonism to motility level of non-dosed animals=100%

| SMILES | IC50 (dopamine (D2) receptor) | IC50 (serotonin (S2) receptor) | Improvement of cycloheximide-induced amnesia (step-down latency) ([3]; 0.5 mg/kg i.p.) | response vs control in vivo at 100 mg/kg [5] | IC50 (adrenaline (α1) receptor) | Lethality of animals (mice) | IC50 (serotonin (S1) receptor) | Improvement of scopolamine-induced deficit of spontaneous alternation ([2]; 2.0 mg/kg i.p.) | other results |
| --- | --- | --- | --- | --- | --- | --- | --- | --- | --- |
| c1ccc(-c2nc(N3CCNCC3)nc3c2CCCCC3)cc1 [Ex. 7, 2-(1-Piperazinyl)-4-phenyl-6,7,8,9-tetrahydro-5H-cycloheptapyrimidine] | 2000 nM | 38 nM | 70.4% | – | – | – | – | – | inhibition in vivo at 30 mg/kg [1, 9]: 78.2%; Improvement of scopolamine-induced deficit of spontaneous alternation ([2]; 10.0 mg/kg i.p.): 44.0% |
| CN1CCN(c2nc3c(c(-c4ccccc4)n2)CCC3)CC1 [6,7-dihydro-2-(4-methyl-1-piperazinyl)-4-phenyl-5H-cyclopenta[d]pyrimidine] | – | – | – | – | – | – | – | – | Anti-inflammatory activity [4]: have anti-inflammatory activity |
| Fc1ccc(-c2nc(N3CCNCC3)nc3c2CCC3)cc1 [Ex. 1, 2-(1-piperazinyl)-4-(4-fluorophenyl)-6,7-dihydro-5H-cyclopentapyrimidine] | 920 nM | 29 nM | 33.8% | 150% | 1100 nM | no animal was died | 750 nM | – | inhibition in vivo at 3 mg/kg [1]: 60.7%; Improvement of scopolamine-induced deficit of spontaneous alternation ([2]; 0.02 mg/kg i.p.): 47.8%; Improvement of scopolamine-induced deficit of spontaneous alternation ([2]; 0.5 mg/kg i.p.): 51.9%; Improvement of cycloheximide-induced amnesia (step-down latency) ([3]; 2.0 mg/kg i.p.): 65.8%; Prolongation rate of survival time [6]: 36.7% |
| CN1CCN(c2nc3c(c(-c4ccccc4)n2)CCCCC3)CC1 [6,7,8,9-tetrahydro-2-(4-methyl-1-piperazinyl)-4-phenyl-5H-cyclohepta[d]pyrimidine] | – | – | – | – | – | – | – | – | Anti-inflammatory activity [4]: have anti-inflammatory activity |
| c1ccc(CN2CCN(c3nc4c(c(-c5ccccc5)n3)CCCC4)CC2)cc1 [4-phenyl-2-(4-benzyl-1-piperazinyl)-5,6,7,8-tetrahydroquinazoline] | – | – | – | – | – | – | – | – | Hypoglycemic activity [7]: weak hypoglycemic activity |
| c1ccc(-c2nc(N3CCNCC3)nc3c2CCCC3)cc1 [4-phenyl-2-(1-piperazinyl)-5,6,7,8-tetrahydroquinazoline] | – | – | – | – | – | – | – | – | Hypoglycemic activity [7]: weak hypoglycemic activity |
| Fc1ccc(-c2nc(N3CCNCC3)nc3c2CCCCC3)cc1 [Ex. 2, 2-(1-piperazinyl)-4-(4-fluorophenyl)-6,7,8,9-tetrahydro-5H-cycloheptapyrimidine] | 750 nM | 9.6 nM | 93.7% | 135% | 3400 nM | no animal was died | 3000 nM | 39.1% | inhibition in vivo at 30 mg/kg [1]: 69.2%; Improvement of cycloheximide-induced amnesia (step-down latency) ([3]; 2.0 mg/kg i.p.): 72.8% |
| c1ccc(-c2nc(N3CCNCC3)nc3c2CCCCCC3)cc1 [Ex. 9, 2-(1-Piperazinyl)-4-phenyl-5,6,7,8,9,10-hexahydrocyclooctapyrimidine] | – | – | 85.8% | – | – | no animal was died | – | 36.7% | inhibition in vivo at 10 mg/kg ([1]; 10 mg/kg, orally, scopolamine hydrobromide 1 mg/kg i.p., complete antagonism to motility level of non-dosed animals=100%): 60.4% |
| CN1CCN(c2nc3c(c(-c4ccc(F)cc4)n2)CCCC3)CC1 [Ex. 28] | 350 nM | 87 nM | – | 156% | – | – | – | – | inhibition in vivo at 30 mg/kg [1, 9]: 96.4%; Inhibitory ratio (% inhibition of reserpine-induced hypothermia) [8]: 37% |
| Fc1ccc(-c2nc(N3CCNCC3)nc3c2CCCCCC3)cc1 [Ex. 10, 2-(1-Piperazinyl)-4-(4-fluorophenyl)-5,6,7,8,9,10-hexahydrocyclooctapyrimidine] | 130 nM | 19 nM | 67.1% | – | 1200 nM | – | 1300 nM | 63.0% | inhibition in vivo at 3 mg/kg [1]: 50.6% |
